Test results from paper PMC9081605, “A High-Throughput Toxicity Screen of 42 Per- and Polyfluoroalkyl Substances (PFAS) and Functional Assessment of Migration and Gene Expression in Human Placental Trophoblast Cells” (Frontiers in Toxicology, 2022).

Columns and labels:
Type in all cases: cell-based, human
JEG-3 cells [1] = assay: CellTiter-Glo luminescent cell viability assay (HTTS); details: for Viability ↑, lowest concentration at which the mean response value exceeded the mean control value ± 2*SD (rough binning): increase; for cell viability relative to vehicle control (rough binning): after 24 h, in at least one concentration
Description: (§1) JEG-3 human choriocarcinoma trophoblastic cells (American Type Culture Collection, VA, United States) were maintained in sterile-filtered Minimum Essential Media (MEM) supplemented with L-glutamine and phenol red (Thermo Fisher Scientific, MA, United States), 10% (v/v) heat-inactivated BenchMark Fetal Bovine Serum (Gemini Bio, CA, United States), 1% (v/v) sodium pyruvate (Thermo Fisher Scientific, MA, United States), and 1% (v/v) penicillin streptomycin (Sigma Aldrich, MO, United States). Cells were maintained in an incubator at 37°C with 5% CO2. JEG-3 cells were cultured in 10 cm tissue culture plates and cell passage numbers were recorded.
(§2) A total of 42 perfluoroalkyl substances (PFAS) were evaluated (Supplementary Table S1 contains source and purity). PFAS stock solutions were maintained in 100% methanol as previous work has shown certain PFAS degrade when stored in dimethyl sulfoxide (DMSO; [Gaballah et al., 2020]). […] The vehicle control group consisted of 97.5% media + 2.5% methanol to match the concentration of methanol in the media at the highest PFAS concentration tested (500 µM). Menadione (50–500 µM) was used as a positive control for cytotoxicity assessment. PFAS were de-identified and assigned random numbers to eliminate bias. Chemical exposure plate maps were designed so that all experimental conditions were tested in at least technical duplicates per plate. The outer edges of each plate received media alone and were excluded from all analyses to avoid edge effects. Each plate map included 14 technical replicates of the vehicle control group and 14 technical replicates of media only. Biological replicates were defined as separate 384 well plates tested on separate days using different cell passages. The experimental workflow is depicted in Supplementary Figure S1.
(§3) JEG-3 cells were counted using a Z2 Coulter Particle Counter (Beckman Coulter, CA, United States) and seeded at a density of 2,500 cells per well in black-walled, clear bottom 384 well plates (Corning, #3764) and allowed to adhere overnight. Approximately 24 h later, 384 well plates were imaged using an IncuCyte Zoom live cell imager (Essen BioScience Inc., MI, United States) to obtain baseline cellular confluence measurements prior to chemical dosing (0 h). Media was removed from wells and replaced with fresh media containing chemical treatments (exposure media) using a Viaflo liquid handling device (Integra Biosciences, NH, United States). Within 30 min of exposure media application, plates were again imaged for cellular confluence using the IncuCyte Zoom. Plates were incubated with exposure media for 24 h and then imaged again using the IncuCyte Zoom (24 h).
In the same plate evaluated for mitochondrial membrane potential, cell viability measures were duplexed using the CellTiter-Glo (CTG) Luminescent Cell Viability Assay (Promega, WI, United States). CTG reagent was added to each well at a volume of 20 µl. The plate was left at room temperature to incubate for 5 min and then 20 µl from each well was transferred to a low-volume, round-bottom, white 384 well plate (Corning, NY, United States). The CTG reagent lyses cellular and mitochondrial membranes and binds to adenosine triphosphate (ATP) released by cells, which produces a luminescence signal. The intensity of the luminescence was considered a proxy measure for the number of live cells in a well. The luminescence intensities were measured using the CLARIOstar plate reader.
HTTS data were analyzed using a custom data analysis script in R v 1.2.5019 ([R Core Team, 2019]). Briefly, raw data points corresponding to the confluence measurements at 0 and 24 h, the fluorescence intensities corresponding to MMP, and the relative luminescence units (RLU) corresponding to cell viability were imported directly from Microsoft Excel into the R programming environment, RStudio. Separate plates run on separate days using different JEG-3 passages were considered as biologic replicates. […]

JEG-3 cells [2] = assay: Mitochondrial membrane potential, JC-10 assay (HTTS)
Description: as §1, §2, §3
The JC-10 assay (Enzo Life Sciences, NY, United States) was used to evaluate mitochondrial membrane potential, the main bioenergetic parameter that regulates respiratory rate, ATP synthesis and reactive oxygen species generation. In cells with polarized mitochondrial membranes, the JC-10 dye localizes to the mitochondrial matrix and forms red fluorescent aggregates (540/590 nm). In cells with depolarized mitochondrial membranes, the JC-10 dye localizes in the cytoplasm and converts to a green fluorescent monomer (490/525 nm). Mitochondrial membrane potential was calculated as the ratio of the green and red fluorescence intensities within a well.
At the end of the 24 h exposure period, exposure media was removed from the plate. The plate wells were then washed with 1x phosphate buffered saline (1x PBS). After washing, the JC-10 reagent was suspended in fresh 1x PBS and 20 µl was added to each well at a final concentration of 20 μM (Enzo Life Sciences, NY, United States). The plate was incubated for 1 h at 37°C, and the fluorescence intensities at excitation/emission wavelengths of 490/525 nm and 540/590 nm were measured using a CLARIOstar (BMG Labtech, Offenburg, Germany) plate reader, respectively.
HTTS data were analyzed using a custom data analysis script in R v 1.2.5019 ([R Core Team, 2019]). […]

JEG-3 cells [3] = assay: Proliferation, change in confluence 0-24 h (IncuCyte Zoom, HTTS); details: for Prolif ↑, lowest concentration at which the mean response value exceeded the mean control value ± 2*SD (rough binning) / Prolif ↓, lowest concentration at which the mean response value exceeded the mean control value ± 2*SD (rough binning): 24 h; for Prolif ↑, lowest concentration at which the mean response value exceeded the mean control value ± 2*SD (rough binning): increase; for cellular proliferation relative to vehicle control (rough binning): after 24 h, in at least one concentration; for Prolif ↓, lowest concentration at which the mean response value exceeded the mean control value ± 2*SD (rough binning): decrease; for minimal effective concentration: read-out: Prolif ↓, lowest concentration at which the mean response value exceeded the mean control value ± 2*SD (rough binning)
Description: as §1, §2, §3
Plate well bottom images were evaluated using automated cell masking. The automated cell masking program was developed using IncuCyte Zoom base software. Cell masking parameters were defined using a training set of JEG-3 cell images obtained prior to conducting the experiments and following IncuCyte Zoom software recommendations. Briefly, the training images were obtained from cell culture plates with varying levels of JEG-3 cellular confluence (ranging from ∼15% confluent to ∼95% confluent). Parameters for the automated cell masking were first manually set by an experimenter for 3-6 images of low (∼15–30%), medium (∼30–70%), and high confluence (∼70% or greater). The training images were then evaluated by the automated masking program and manually checked to ensure the parameters were sufficiently strict to ignore background (e.g., blank space on the plate well bottom) but adequately sensitive to detect cell borders. The masking program was then implemented on the experimental plates to obtain a baseline cellular confluence measurement at 0 h and a second confluence measurement at 24 h. […]

[4] = JEG-3 cells, 24 h exposure, four-parameter fit, estimates meeting inclusion criteria, read-out: Viability EC50 ± SD
[5] = JEG-3 cells, 24 h exposure, four-parameter fit, estimates meeting inclusion criteria, read-out: MMP EC50 ± SD
[6] = JEG-3 cells, 24 h exposure, four-parameter fit, estimates meeting inclusion criteria, read-out: Proliferation EC50 ± SD
[7] = Homo sapiens, JEG-3, 24 h, read-out: Viability EC50 ± SD, JEG-3 cells, 24 h exposure, four-parameter fit, estimates meeting inclusion criteria
[8] = Homo sapiens, JEG-3, 24 h, read-out: Proliferation EC50 ± SD, JEG-3 cells, 24 h exposure, four-parameter fit, estimates meeting inclusion criteria

Compound: 6:2 Fluorotelomer alcohol
- EC50 (JEG-3 cells [1]; [4]): 415 ± 70.6 µM
- EC50 (JEG-3 cells [2]; JEG-3 cells, 24 h, read-out: MMP EC50 ± SE): 95.1 ± 15.3 µM
- EC50 (JEG-3 cells [2]; [5]): 332 ± 44.1 µM

Compound: O=C([O-])C(F)(F)OC(F)(F)F.[Na+] [2,2-Difluoro-2-(trifluoromethoxy)acetate sodium salt]
- Prolif ↑, lowest concentration at which the mean response value exceeded the mean control value ± 2*SD (rough binning) (JEG-3 cells [3]; JEG-3 cells): 50 µM
- cellular proliferation relative to vehicle control (rough binning) (JEG-3 cells [3]): increased cellular proliferation

Compound: O=C(O)C(F)(F)C(F)(F)C(F)(F)C(F)F [5H-Octafluoropentanoic acid]
- EC50 (JEG-3 cells [1]; [4]): 354 ± 28.6 µM
- EC50 (JEG-3 cells [3]; [6]): 334 ± 56.5 µM

Compound: O=S(=O)(O)CCC(F)(F)C(F)(F)C(F)(F)C(F)(F)C(F)(F)C(F)(F)F [6:2 Fluorotelomer sulfonic acid]
- Prolif ↑, lowest concentration at which the mean response value exceeded the mean control value ± 2*SD (rough binning) (JEG-3 cells [3]; JEG-3 cells): 50 µM
- cellular proliferation relative to vehicle control (rough binning) (JEG-3 cells [3]): increased cellular proliferation
- EC50 (JEG-3 cells [2]; JEG-3 cells, raw model output including fits that did not meet inclusion criteria, read-out: MMP EC50 ± SD (raw values)): 70608 ± 10 µM

Compound: O=C(O)C(F)(F)C(F)(F)C(F)(F)C(F)(F)C(F)(F)C(F)F [7H-Perfluoroheptanoic acid]
- Viability ↑, lowest concentration at which the mean response value exceeded the mean control value ± 2*SD (rough binning) (JEG-3 cells [1]; JEG-3 cells, 24 h): 50 µM
- EC50 (JEG-3 cells [1]; [4]): 223 ± 60.2 µM
- cell viability relative to vehicle control (rough binning) (JEG-3 cells [1]): increased cell viability
- Prolif ↓, lowest concentration at which the mean response value exceeded the mean control value ± 2*SD (rough binning) (JEG-3 cells [3]; JEG-3 cells): 400 µM
- EC50 (JEG-3 cells [3]; [6]): 294 ± 48.2 µM
- cellular proliferation relative to vehicle control (rough binning) (JEG-3 cells [3]): reduced cellular proliferation

Compound: OCCC(F)(F)C(F)(F)C(F)(F)C(F)(F)C(F)(F)C(F)(F)C(F)(F)C(F)(F)F [8:2 Fluorotelomer alcohol]
- EC50 (JEG-3 cells [1]; [7]): 35.7 ± 36.5 µM
- EC50 (JEG-3 cells [1]; Homo sapiens, JEG-3, 24 h, read-out: viability EC50 ± SE, JEG-3 cells, 24 h): 36 ± 37 µM
- EC50 (JEG-3 cells [2]; Homo sapiens, JEG-3, 24 h, read-out: MMP EC50 ± SD, JEG-3 cells, 24 h exposure, four-parameter fit, estimates meeting inclusion criteria): 95.1 ± 15.3 µM

Compound: O=C(O)C(F)(OC(F)(F)C(F)(F)C(F)(F)F)C(F)(F)F (centres unmarked) [Ammonium perfluoro-2-methyl-3-oxahexanoate]
- minimal effective concentration (JEG-3 cells [3]; Homo sapiens, JEG-3, 24 h): 50 µM
- EC50 (JEG-3 cells [3]; Homo sapiens, JEG-3, read-out: Proliferation EC50 ± SD (raw values), JEG-3 cells, raw model output including fits that did not meet inclusion criteria): 997 ± 952 µM

Compound: O=C(O)C(F)(OC(F)(F)C(F)(F)C(F)(F)F)C(F)(F)F (centres unmarked) [Perfluoro-2-methyl-3-oxahexanoic acid]
- Prolif ↑, lowest concentration at which the mean response value exceeded the mean control value ± 2*SD (rough binning) (JEG-3 cells [3]; JEG-3 cells): 450 µM
- cellular proliferation relative to vehicle control (rough binning) (JEG-3 cells [3]): increased cellular proliferation
- EC50 (JEG-3 cells [3]; read-out: Proliferation EC50 ± SD (raw values), JEG-3 cells, raw model output including fits that did not meet inclusion criteria): 1110 ± 267 µM
- minimal effective concentration (JEG-3 cells [2]; Homo sapiens, JEG-3, 24 h, read-out: MMP ↓, lowest concentration at which the mean response value exceeded the mean control value ± 2*SD (rough binning)): 375 µM
- MMP relative to vehicle control (rough binning) (JEG-3 cells [2]; after 24 h, in at least one concentration): reduced MMP

Compound: O=C(O)C(F)(F)C(F)(F)C(F)(F)C(F)(F)C(F)(F)C(F)(F)C(F)(F)C(F)(F)C(F)(F)C(F)(F)C(F)(F)F [Perfluorododecanoic acid]
- EC50 (JEG-3 cells [1]; [7]): 361 ± 30.8 µM
- Viability ↑, lowest concentration at which the mean response value exceeded the mean control value ± 2*SD (rough binning) (JEG-3 cells [1]; JEG-3 cells, 24 h): 50 µM
- cell viability relative to vehicle control (rough binning) (JEG-3 cells [1]): increased cell viability
- EC50 (JEG-3 cells [3]; [8]): 318 ± 24.5 µM

Compound: O=C(O)C(F)(F)C(F)(F)C(F)(F)C(F)(F)C(F)(F)C(F)(F)F [Perfluoroheptanoic acid]
- EC50 (JEG-3 cells [1]; [7]): 487 ± 409 µM
- minimal effective concentration (JEG-3 cells [3]; Homo sapiens, JEG-3, 24 h): 450 µM
- EC50 (JEG-3 cells [3]; [8]): 277 ± 81.6 µM
- cellular proliferation relative to vehicle control (rough binning) (JEG-3 cells [3]): reduced cellular proliferation

Compound: O=C(O)C(F)(F)C(F)(F)C(F)(F)C(F)(F)F [Perfluoropentanoic acid]
- Viability ↑, lowest concentration at which the mean response value exceeded the mean control value ± 2*SD (rough binning) (JEG-3 cells [1]; JEG-3 cells, 24 h): 200 µM
- cell viability relative to vehicle control (rough binning) (JEG-3 cells [1]): increased cell viability
- EC50 (JEG-3 cells [2]; [5]): 175 ± 68.4 µM

Compound: O=C(O)C(F)(F)C(F)(F)C(F)(F)C(F)(F)C(F)(F)C(F)(F)C(F)(F)C(F)(F)C(F)(F)C(F)(F)C(F)(F)C(F)(F)F [Perfluorotridecanoic acid]
- Viability ↑, lowest concentration at which the mean response value exceeded the mean control value ± 2*SD (rough binning) (JEG-3 cells [1]; JEG-3 cells, 24 h): 150 µM
- cell viability relative to vehicle control (rough binning) (JEG-3 cells [1]): increased cell viability
- Prolif ↓, lowest concentration at which the mean response value exceeded the mean control value ± 2*SD (rough binning) (JEG-3 cells [3]; JEG-3 cells): 450 µM
- Prolif ↑, lowest concentration at which the mean response value exceeded the mean control value ± 2*SD (rough binning) (JEG-3 cells [3]; JEG-3 cells): 50 µM
- EC50 (JEG-3 cells [3]; [6]): 388 ± 125 µM

Compound: O=S(=O)([O-])C(F)(F)C(F)(F)C(F)(F)C(F)(F)C(F)(F)F.[Na+] [Sodium perfluoropentanesulfonate]
- Viability ↓, lowest concentration at which the mean response value exceeded the mean control value ± 2*SD (rough binning) (JEG-3 cells [1]; JEG-3 cells, 24 h, decrease): 350 µM
- EC50 (JEG-3 cells [1]; JEG-3 cells, raw model output including fits that did not meet inclusion criteria, read-out: Viability EC50 ± SD (raw values)): 1210 µM
- cell viability relative to vehicle control (rough binning) (JEG-3 cells [1]): reduced cell viability
- Prolif ↑, lowest concentration at which the mean response value exceeded the mean control value ± 2*SD (rough binning) (JEG-3 cells [3]; JEG-3 cells): 200 µM
- cellular proliferation relative to vehicle control (rough binning) (JEG-3 cells [3]): increased cellular proliferation
